Measurements as given in US20150344540A1, “NOVEL GLP-1 RECEPTOR AGONISTS WITH CHOLESTEROL EFFLUX ACTIVITY” (NOVO NORDISK A/S, priority 2012, published 2015).
pEC50: −log10 of the molar value. Like-named read-outs stand apart in the source and are kept apart here. Where a SMILES comes first, the peptide text is derived from it. Where no end group is shown, it is not given here. [ ]: non-standard residue; d: D form. Aib = CC(C)(N)C(=O)O

Tests used:
in vivo = details: female, Göttingen, minipig, iv, 5 nmol/kg
Description: The aim of the study is to assess the pharmacokinetic properties of the compounds of the invention, in mini-pigs.
Göttingen mini-pigs female, 15-20 kg, purchased from Ellegaard Mini-pigs, Denmark, were housed in the Animal Unit, Novo Nordisk A/S and were kept and handled according to normal procedure in the Animal Unit. After minimum 2 weeks of acclimatization two permanent central venous catheters were implemented in vena cava caudalis in each animal. After surgery the animals were in their normal individual pens during the pharmacokinetic experiments.
Intravenous injections were given through the central short catheter, which was flushed with min 10 ml of sterile saline post administration. The test substance was dosed at 5 nmol/kg, N=3, in a volume of 0.05 ml/kg.
On day 1 the catheters are coupled to extension tubes, which will be removed at the end of day 1.
Samples were kept on wet ice until centrifugation (10 min, 4° C., 1942 g). Afterwards, plasma (min. 100 μl) was transferred immediately to Micronic tubes and kept at −20° C. until analysis. The plasma samples were analysed by an immunoaasay described below.
The plasma concentrations of the peptides with intact N-terminus were determined using a Luminescence Oxygen Chanelling Immuno-assay (LOCI). The donor beads were coated with streptavidin, while acceptor beads were conjugated with a monoclonal antibody recognizing a mid-/C-terminal epitope of the peptide. The other monoclonal antibody, specific for the N-terminus, was biotinylated. The three reactants were combined with the analyte and formed a two-sited immuno-complex. Illumination of the complex released singlet oxygen atoms from the donor beads, which were channeled into the acceptor beads and triggered chemi-luminescence which was measured in an Envision plate reader. The amount of light was proportional to the concentration of the compound.
Plasma concentration-time profiles was analysed by a non-compartmental pharmacokinetics analysis using Phoenix (Pharsight Inc., Mountain View, Calif., USA). Calculations were performed using individual concentration-time values from each animal.

[1] = system: Mouse monocyte/macrophage cell line, RAW 264.7; assay: Cholesterol efflux assay (3H-cholesterol, macrophage cell line); assay type: cell-based; details: RAW 264.7, 4 hrs incubation, 0.1% human serum albumin; for 4 h Cholesterol Efflux Emax: ABCA1-mediated efflux
human GLP-1 receptor = human GLP-1 receptor (Homo sapiens, UniProt P43220); assay: Functional GLP-1 receptor assay, in vitro potency (CRE luciferase; whole cells); assay type: cell-based; details: BHK cells expressing human GLP-1 receptor
[2] = plasma, T1/2 Mean Value, Göttingen mini-pigs, N=3

human GLP-1 receptor, sequence (P43220 24-463): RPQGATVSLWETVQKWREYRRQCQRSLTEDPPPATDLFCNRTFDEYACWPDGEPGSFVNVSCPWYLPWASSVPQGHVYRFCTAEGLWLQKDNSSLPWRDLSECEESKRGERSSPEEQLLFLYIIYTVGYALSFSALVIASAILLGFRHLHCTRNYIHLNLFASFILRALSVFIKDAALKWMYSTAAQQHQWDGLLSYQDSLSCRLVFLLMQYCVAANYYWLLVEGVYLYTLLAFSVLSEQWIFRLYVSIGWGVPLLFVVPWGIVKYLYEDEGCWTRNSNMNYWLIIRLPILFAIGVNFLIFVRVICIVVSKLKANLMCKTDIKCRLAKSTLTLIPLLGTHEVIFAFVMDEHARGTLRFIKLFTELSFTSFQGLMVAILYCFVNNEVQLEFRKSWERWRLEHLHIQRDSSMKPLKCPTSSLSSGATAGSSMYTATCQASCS

Row | C0 (in vivo; in vivo) [nM] | Vd (in vivo; in vivo) [L/kg] | clearance (in vivo; in vivo) [mL/h/kg] | half-life (in vivo; in vivo, T1/2 Mean Value) [min] | C0 (in vivo; plasma) [nM] | Vd (in vivo; plasma) [L/kg] | clearance (in vivo; plasma) [mL/h/kg] | half-life (in vivo; [2]) [min] | half-life (in vivo; plasma, T1/2, mini-pigs) [min] | half-life (in vivo; in vivo) [min] | pEC50 (human GLP-1 receptor; 0% HSA, read-out: GLP1R CRE luc 0% HSA EC50 Mean Value) | pEC50 (human GLP-1 receptor; GLP1R CRE luc 1% HSA EC50 Mean Value, 1% HSA) | Compound | 4 h Cholesterol Efflux Emax [1] [%] | pEC50 ([1]; read-out: 4 h Cholesterol Efflux EC50, ABCA1-mediated efflux (CPT-cAMP induced minus non-induced))
1 | 136 | 0.0636 | 1.06 | 2500 |  |  |  |  |  |  |  |  | HGEGTFTSDVSSYLEGEAVKEFIAWLVEKVKEFL-NH2 [Compound 76, [Gly8,Glu23,Val25,Glu34,Lys35,Val36,Lys37]-GLP-1-(7-37)-peptidyl-Glu-Phe-Leu amide] |  | 
2 |  |  |  |  | 163 | 0.056 | 1.17 | 1980 |  |  |  |  | HAEGTFTSDVSSYLEGEAVKEFIAWLVEKVKEFL-NH2 [Compound 67, [Glu23,Val25,Glu34,Lys35,Val36,Lys37]-GLP-1-(7-37)-peptidyl-Glu-Phe-Leu amide] |  | 
3 |  |  |  |  | 136 | 0.0802 | 1.31 | 2440 |  |  |  |  | CC[C@H](C)[C@H](NC(=O)[C@H](Cc1ccccc1)NC(=O)[C@H](CCC(=O)O)NC(=O)[C@H](CCCCN)NC(=O)[C@@H](NC(=O)[C@H](C)NC(=O)[C@H](CCC(=O)O)NC(=O)CNC(=O)[C@H](CCC(=O)O)NC(=O)[C@H](CC(C)C)NC(=O)[C@H](Cc1ccc(O)cc1)NC(=O)[C@H](CO)NC(=O)[C@H](CO)NC(=O)[C@@H](NC(=O)[C@H](CC(=O)O)NC(=O)[C@H](CO)NC(=O)[C@@H](NC(=O)[C@H](Cc1ccccc1)NC(=O)[C@@H](NC(=O)CNC(=O)[C@H](CCC(=O)O)NC(=O)C(C)(C)NC(=O)[C@@H](N)Cc1c[nH]cn1)[C@@H](C)O)[C@@H](C)O)C(C)C)C(C)C)C(=O)N[C@@H](C)C(=O)N[C@@H](Cc1c[nH]c2ccccc12)C(=O)N[C@@H](CC(C)C)C(=O)N[C@H](C(=O)N[C@@H](CCC(=O)O)C(=O)N[C@@H](CCCCN)C(=O)NC(C)(C)C(=O)N[C@@H](CCCCN)C(=O)N[C@@H](CCC(=O)O)C(=O)N[C@@H](Cc1ccccc1)C(=O)N[C@@H](CC(C)C)C(=O)N[C@@H](CCC(=O)O)C(=O)N[C@@H](CCCCN)C(=O)N[C@H](C(N)=O)C(C)C)C(C)C [Compound 54, [Aib8,Glu23,Val25,Glu34,Lys35,Aib36,Lys37]-GLP-1-(7-37)-peptidyl-Glu-Phe-Leu-Glu-Lys-Val amide] | 121 | 
4 |  |  |  |  | 89.5 | 0.0904 | 1.64 | 2320 | 2320 |  |  |  | CC[C@H](C)[C@H](NC(=O)[C@H](Cc1ccccc1)NC(=O)[C@H](CCC(=O)O)NC(=O)[C@H](CCCCN)NC(=O)[C@@H](NC(=O)[C@H](C)NC(=O)[C@H](CCC(=O)O)NC(=O)CNC(=O)[C@H](CCC(=O)O)NC(=O)[C@H](CC(C)C)NC(=O)[C@H](Cc1ccc(O)cc1)NC(=O)[C@H](CO)NC(=O)[C@H](CO)NC(=O)[C@@H](NC(=O)[C@H](CC(=O)O)NC(=O)[C@H](CO)NC(=O)[C@@H](NC(=O)[C@H](Cc1ccccc1)NC(=O)[C@@H](NC(=O)CNC(=O)[C@H](CCC(=O)O)NC(=O)C(C)(C)NC(=O)[C@@H](N)Cc1c[nH]cn1)[C@@H](C)O)[C@@H](C)O)C(C)C)C(C)C)C(=O)N[C@@H](C)C(=O)N[C@@H](Cc1c[nH]c2ccccc12)C(=O)N[C@@H](CC(C)C)C(=O)N[C@H](C(=O)N[C@@H](CCC(=O)O)C(=O)N[C@@H](CCCCN)C(=O)N[C@H](C(=O)N[C@@H](CCCCN)C(=O)N[C@@H](CCC(=O)O)C(=O)N[C@@H](Cc1ccccc1)C(=O)N[C@@H](CC(C)C)C(N)=O)C(C)C)C(C)C [Compound 6, [Aib8,Glu23,Val25,Glu34,Lys35,Val36,Lys37]-GLP-1-(7-37)-peptidyl-Glu-Phe-Leu amide] (H-H[Aib]EGTFTSDVSSYLEGEAVKEFIAWLVEKVKEFL-NH2) | 92 | 
5 | 95.8 | 0.0921 | 1.2 |  |  |  |  |  |  | 3190 |  |  | CC[C@H](C)[C@H](NC(=O)[C@H](Cc1ccccc1)NC(=O)[C@H](CCC(=O)O)NC(=O)[C@H](CCCCN)NC(=O)[C@@H](NC(=O)[C@H](C)NC(=O)[C@H](CCC(=O)O)NC(=O)CNC(=O)[C@H](CCC(=O)O)NC(=O)[C@H](CC(C)C)NC(=O)[C@H](Cc1ccc(O)cc1)NC(=O)[C@H](CO)NC(=O)[C@H](CO)NC(=O)[C@@H](NC(=O)[C@H](CC(=O)O)NC(=O)[C@H](CO)NC(=O)[C@@H](NC(=O)[C@H](Cc1ccccc1)NC(=O)[C@@H](NC(=O)CNC(=O)[C@H](CCC(=O)O)NC(=O)C(C)(C)NC(=O)[C@@H](N)Cc1c[nH]cn1)[C@@H](C)O)[C@@H](C)O)C(C)C)C(C)C)C(=O)N[C@@H](C)C(=O)N[C@@H](Cc1c[nH]c2ccccc12)C(=O)N[C@@H](CC(C)C)C(=O)N[C@H](C(=O)N[C@@H](CCC(=O)O)C(=O)N[C@@H](CCCCN)C(=O)NC(C)(C)C(=O)N[C@@H](CCCCN)C(=O)N[C@@H](CCC(=O)O)C(=O)N[C@@H](Cc1ccccc1)C(=O)N[C@@H](CC(C)C)C(=O)N[C@@H](CCC(=O)O)C(=O)N[C@@H](CCCCN)C(=O)O)C(C)C [Compound 99, [Aib8,Glu23,Val25,Glu34,Lys35,Aib36,Lys37]-GLP-1-(7-37)-peptidyl-Glu-Phe-Leu-Glu-Lys] | 99 | 6.54
6 |  |  |  |  | 72.1 | 0.1 | 3.31 | 1240 | 1240 |  |  |  | CC[C@H](C)[C@H](NC(=O)[C@H](Cc1ccccc1)NC(=O)[C@H](CCC(=O)O)NC(=O)[C@H](CCCCN)NC(=O)[C@@H](NC(=O)[C@H](C)NC(=O)[C@H](CCC(=O)O)NC(=O)CNC(=O)[C@H](CCC(=O)O)NC(=O)[C@H](CC(C)C)NC(=O)[C@H](Cc1ccc(O)cc1)NC(=O)[C@H](CO)NC(=O)[C@H](CO)NC(=O)[C@@H](NC(=O)[C@H](CC(=O)O)NC(=O)[C@H](CO)NC(=O)[C@@H](NC(=O)[C@H](Cc1ccccc1)NC(=O)[C@@H](NC(=O)CNC(=O)[C@H](CCC(=O)O)NC(=O)C(C)(C)NC(=O)[C@@H](N)Cc1c[nH]cn1)[C@@H](C)O)[C@@H](C)O)C(C)C)C(C)C)C(=O)N[C@@H](C)C(=O)N[C@@H](Cc1c[nH]c2ccccc12)C(=O)N[C@@H](CC(C)C)C(=O)N[C@H](C(=O)N[C@@H](CCC(=O)O)C(=O)N[C@@H](CCCCN)C(=O)NC(C)(C)C(=O)N[C@@H](CCCCN)C(=O)N[C@@H](CCC(=O)O)C(=O)N[C@@H](Cc1c[nH]cn1)C(=O)N[C@@H](CC(C)C)C(N)=O)C(C)C [Compound 4, [Aib8,Glu23,Val25,Glu34,Lys35,Aib36,Lys37]-GLP-1-(7-37)-peptidyl-Glu-His-Leu amide] (H-H[Aib]EGTFTSDVSSYLEGEAVKEFIAWLVEK[Aib]KEHL-NH2) | 100 | 
7 |  |  |  |  | 59.2 | 0.0615 | 8.04 | 324 |  |  | 10.40 | 11.00 | HAEGTFTSDVSSYLEGQAAKEFIAWLVEKVKEHL-NH2 [Compound 107, [Glu34,Lys35,Val36,Lys37]-GLP-1-(7-37)-peptidyl-Glu-His-Leu amide] |  | 
8 | 58.4 | 0.134 | 4.45 | 1240 |  |  |  |  |  |  |  |  | HGEGTFTSDVSSYLEGEAVKEFIAWLVEKVKEHL-NH2 [Compound 78, [Gly8,Glu23,Val25,Glu34,Lys35,Val36,Lys37]-GLP-1-(7-37)-peptidyl-Glu-His-Leu amide] |  | 
